Experimental findings from ChEMBL document CHEMBL3227974, “Multivariate analysis and quantitative structure-activity relationships. Inhibition of dihydrofolate reductase and thymidylate synthetase by quinazolines” (J Med Chem, 1979) are described below.

The target of test [1] is T1, Dihydrofolate reductase (Mus musculus) (UniProt P00375).
T1 sequence (whole entry): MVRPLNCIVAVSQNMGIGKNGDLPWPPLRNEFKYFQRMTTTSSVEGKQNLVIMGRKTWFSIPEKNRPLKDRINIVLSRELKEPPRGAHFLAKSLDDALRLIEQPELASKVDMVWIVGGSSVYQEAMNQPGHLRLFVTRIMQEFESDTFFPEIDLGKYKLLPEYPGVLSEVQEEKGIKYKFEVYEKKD
Briefly: Inhibition of dihydrofolate reductase in mouse L1210R cells. Type of test: cell-based.

Test [2] concerns the target Thymidylate synthase (Mus musculus) (UniProt P07607). The test is described as follows: Inhibition of thymidylate synthetase in mouse L1210S cells. Type of test: cell-based.
Test [3] addresses T2, Thymidylate synthase (Lactobacillus casei) (UniProt P00469).
T2 sequence (whole entry): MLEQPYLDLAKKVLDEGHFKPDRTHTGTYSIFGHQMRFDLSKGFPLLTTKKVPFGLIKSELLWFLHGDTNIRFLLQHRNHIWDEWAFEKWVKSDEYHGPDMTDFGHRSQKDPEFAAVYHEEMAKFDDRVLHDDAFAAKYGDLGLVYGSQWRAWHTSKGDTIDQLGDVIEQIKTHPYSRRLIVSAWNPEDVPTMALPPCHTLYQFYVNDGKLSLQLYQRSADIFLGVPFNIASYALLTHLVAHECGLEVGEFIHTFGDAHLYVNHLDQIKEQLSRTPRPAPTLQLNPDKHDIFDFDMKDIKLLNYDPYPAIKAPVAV
The test is described as follows: Inhibition of thymidylate synthetase in Lactobacillus casei. The settings on record: Lacticaseibacillus casei.

Test [4] concerns the target T3, Dihydrofolate reductase (Homo sapiens) (UniProt P00374).
T3 sequence (whole entry): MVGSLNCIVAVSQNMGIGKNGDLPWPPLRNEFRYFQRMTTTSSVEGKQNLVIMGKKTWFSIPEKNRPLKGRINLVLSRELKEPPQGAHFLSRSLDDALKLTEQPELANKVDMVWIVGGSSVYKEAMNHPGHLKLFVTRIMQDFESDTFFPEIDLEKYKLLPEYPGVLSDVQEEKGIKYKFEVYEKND
Description: Inhibition of dihydrofolate reductase in human acute lymphocytic leukemia cells

Thymidylate synthase (Mus musculus), sequence (P07607 whole entry, looked up): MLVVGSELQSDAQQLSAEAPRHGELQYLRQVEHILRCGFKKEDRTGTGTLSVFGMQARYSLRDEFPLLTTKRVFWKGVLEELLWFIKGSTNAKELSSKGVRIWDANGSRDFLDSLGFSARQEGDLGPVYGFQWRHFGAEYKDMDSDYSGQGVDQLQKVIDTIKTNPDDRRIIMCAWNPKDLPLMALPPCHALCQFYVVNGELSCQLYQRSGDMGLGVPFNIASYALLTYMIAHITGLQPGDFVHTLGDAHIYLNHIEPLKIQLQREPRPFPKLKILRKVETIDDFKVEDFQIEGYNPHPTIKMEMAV

As for `CCOC(=O)c1ccc(CNc2ccc3nc(N)nc(N)c3c2C)cc1`, the log(1/I50) in test [1] came to 8; in test [2], 4; in test [3], 5.
Take `Cc1c(CNc2ccc(C(=O)NC(CC(=O)O)CC(=O)O)cc2)ccc2nc(N)nc(N)c12`: the log(1/I50) stood at 8.17 in test [4] and 9.15 in test [1].
On the same counts, the results for `Nc1nc(N)c2cc(CNc3cccc(Cl)c3)ccc2n1` are 8 and 8.
The matching figures for `Nc1nc(N)c2cc(CNc3ccc(C(=O)NC(CC(=O)O)C(=O)O)cc3)ccc2n1` (configuration not stated): 8.94 and 8.76.
The matching figures for `Nc1nc(N)c2cc(CNc3ccc(C(=O)NC(C(=O)O)C(=O)O)cc3)ccc2n1`: 9.1 and 8.81.
Take `Nc1nc(N)c2c(Cl)c(CNc3ccc(C(=O)NC(CCC(=O)O)C(=O)O)cc3)ccc2n1` (configuration not stated): the log(1/I50) in test [4] worked out at 9.11; in test [1], 9.05.
The matching figures for `Cc1c(CNc2ccc(Cl)c(C(=O)NC(CCC(=O)O)C(=O)O)c2)ccc2nc(N)nc(N)c12` (configuration not stated): 8.52 and 8.68.
On the same counts, the results for `COc1cc(NCc2ccc3nc(N)nc(N)c3c2C)cc(OC)c1OC` are 8.89 and 8.92.
On the same counts, the results for `Nc1nc(N)c2cc(Oc3ccc(CNc4ccc(C(=O)NC(CC(=O)O)C(=O)O)cc4)cc3)ccc2n1` (configuration not stated) are 7.77 and 7.67.
Turning to `CN(Cc1ccc2nc(N)nc(O)c2c1)c1ccc(C(=O)NC(CCC(=O)O)C(=O)O)cc1` (configuration not stated), the values for the log(1/I50) in test [4], in test [2] and in test [3] were 6.22, 7.3 and 6.4, respectively.
The matching figures for `CCOC(=O)CCC(NC(=O)c1ccc(NCc2ccc3nc(N)nc(N)c3c2C)cc1)C(=O)OCC` (configuration not stated): 8.49, 5.12 and 4.3.
On the same counts, the results for `CCOC(=O)CCC(NC(=O)c1ccc(SCc2ccc3nc(N)nc(O)c3c2)cc1)C(=O)OCC` (configuration not stated) are 5.05, 7 and 5.1.
Consider `Nc1nc(N)c2cc(CNc3ccc(Cl)c(Cl)c3)ccc2n1`, for which the figures for the log(1/I50) in test [4] and in test [1] were 8.42 and 8.05, respectively.
The matching figures for `Nc1nc(N)c2c(Cl)c(CNc3ccc(Cl)c(Cl)c3)ccc2n1`: 8.96 and 8.7.
The matching figures for `Nc1nc(N)c2cc(Oc3ccc(CNc4ccc(C(=O)NC(CCC(=O)O)C(=O)O)cc4)cc3)ccc2n1` (configuration not stated): 7.8 and 7.71.
The matching figures for `Nc1nc(N)c2cc(CN(N=O)c3ccc(Cl)c(Cl)c3)ccc2n1`: 8 and 8.
For the molecule `Nc1nc(O)c2cc(CCc3ccc(C(=O)NC(CCC(=O)O)C(=O)O)cc3)ccc2n1` (configuration not stated), the log(1/I50) in test [4] worked out at 6.31; in test [2] it was 5.3; in test [3] it was 5.12.
On the same counts, the results for `CCOC(=O)c1ccc(CNc2ccc3nc(N)nc(O)c3c2)cc1` are 5.49, 4 and 4.3.
As to `Nc1nc(N)c2c(Cl)c(CNc3ccc(C(=O)NC(CC(=O)O)C(=O)O)cc3)ccc2n1` (configuration not stated), the log(1/I50) was 9.35 in test [4] and 9.21 in test [1].
Consider `Cc1c(NCc2ccc(C(=O)NC(CCC(=O)O)C(=O)O)cc2)ccc2nc(N)nc(N)c12` (configuration not stated), for which the log(1/I50) in test [4] is 9.07; in test [2] it was 6.6; in test [3], 5.6.
On to `Cc1c(CNc2cccc(Br)c2)ccc2nc(N)nc(N)c12`, for which the log(1/I50) in test [4] and in test [1] was 8.82 throughout.
As to `Nc1nc(N)c2cc(CNc3ccc(Cl)c(C(=O)NC(CCC(=O)O)C(=O)O)c3)ccc2n1` (configuration not stated), the log(1/I50) in test [4] worked out at 6.7; in test [1], 8.03.
Consider `Nc1nc(N)c2cc(NCc3ccc(C(=O)NC(CC(=O)O)C(=O)O)cc3)ccc2n1` (configuration not stated), for which the log(1/I50) in test [1] is 7.36.
`CCOC(=O)c1ccc(NCc2ccc3nc(N)nc(O)c3c2)cc1`: the log(1/I50) in test [4] is 4.66; in test [2] it was 4; in test [3], 4.
Take `Nc1nc(N)c2cc(CNc3cc(C(=O)NC(CC(=O)O)C(=O)O)ccc3Cl)ccc2n1` (configuration not stated): the log(1/I50) was 8.52 in test [4] and 8.54 in test [1].
On the same counts, the results for `Nc1nc(N)c2cc(CNc3ccc(Cl)cc3)ccc2n1` are 8.22 and 8.3.
On the same counts, the results for `NC(=O)CCC(NC(=O)c1ccc(NCc2ccc3nc(N)nc(N)c3c2)cc1)C(=O)O` (configuration not stated) are 10.1 and 9.66.
On to `Cc1c(NCc2ccc(C(=O)NC(CCC(=O)O)C(=O)O)cc2)ccc2nc(N)nc(O)c12` (configuration not stated), for which the log(1/I50) in test [4] came out at 6.12; in test [2], 5.12; in test [3], 4.3.
The matching figures for `CCOC(=O)CCC(NC(=O)c1ccc(CNc2ccc3nc(N)nc(N)c3c2)cc1)C(=O)OCC` (configuration not stated): 7.66, 6 and 5.
Take `Nc1nc(N)c2cc(CNc3cccc(Br)c3)ccc2n1`: the log(1/I50) in test [4] was determined as 8.66; in test [1] it was 8.64.
As to `Nc1nc(N)c2cc(CNc3ccc(C(=O)NC(CC(=O)O)CC(=O)O)cc3)ccc2n1`, the log(1/I50) in test [4] is 8.25; in test [1] it was 8.14.
With `Cc1c(CNc2ccc(C(=O)NC(CC(=O)O)C(=O)O)cc2)ccc2nc(N)nc(N)c12` (configuration not stated), the log(1/I50) came out at 8.9 in test [4], 8.87 in test [1], 6 in test [2] and 5 in test [3].
Consider `Nc1nc(N)c2cc(CNc3ccc(Cl)c(C(=O)NC(CC(=O)O)C(=O)O)c3)ccc2n1` (configuration not stated), for which the log(1/I50) in test [4] was determined as 7.92; in test [1], 8.37.
Consider `CCOC(=O)CCC(NC(=O)c1ccc(CNc2ccc3nc(N)nc(O)c3c2C)cc1)C(=O)OCC` (configuration not stated), for which the log(1/I50) in test [4] was 5.1; in test [2] it was 5.12; in test [3], 4.
On to `CN(Cc1ccc2nc(N)nc(N)c2c1)c1ccc(C(=O)NC(CC(=O)O)C(=O)O)cc1` (configuration not stated), for which the log(1/I50) in test [4] came to 8.69; in test [1], 8.66.
Consider `Nc1nc(N)c2cc(CNc3ccc(C(=O)NC(CC(=O)O)C(=O)O)cc3Cl)ccc2n1` (configuration not stated), for which the log(1/I50) in test [4] turned out to be 8.82; in test [1] it was 9.13.
As for `Nc1nc(=O)c2cc(NCc3ccc(C(=O)NC(CCC(=O)O)C(=O)O)cc3)ccc2[nH]1` (configuration not stated), the log(1/I50) was found to be 5.78 in test [4], 6.3 in test [2] and 5 in test [3].
